Calls of active or inactive are those of the source. The rule behind the calls is not given here.
Legend:
CWR22R [1] = assay: Induction of cell cycle arrest in AR-positive human 22Rv1 cells assessed as downregulation of CDK2 expression at 100 to 1000 nM measured after 72 hrs by Western blot analysis; type: functional, cell-based; settings: dose 100-1000 nM
[2] = biological target: T1, Protein cereblon/Bromodomain-containing protein 4 (Homo sapiens) (UniProt O60885+Q96SW2); assay: Protac activity at BRD4/CRBN in AR-positive human VCaP cells assessed as degradation of BRD4 at 1 uM measured after 24 hrs in presence of MG-132 by Western blot analysis; type: cell-based
T1 sequence (Q96SW2 whole entry, looked up, other chains not shown): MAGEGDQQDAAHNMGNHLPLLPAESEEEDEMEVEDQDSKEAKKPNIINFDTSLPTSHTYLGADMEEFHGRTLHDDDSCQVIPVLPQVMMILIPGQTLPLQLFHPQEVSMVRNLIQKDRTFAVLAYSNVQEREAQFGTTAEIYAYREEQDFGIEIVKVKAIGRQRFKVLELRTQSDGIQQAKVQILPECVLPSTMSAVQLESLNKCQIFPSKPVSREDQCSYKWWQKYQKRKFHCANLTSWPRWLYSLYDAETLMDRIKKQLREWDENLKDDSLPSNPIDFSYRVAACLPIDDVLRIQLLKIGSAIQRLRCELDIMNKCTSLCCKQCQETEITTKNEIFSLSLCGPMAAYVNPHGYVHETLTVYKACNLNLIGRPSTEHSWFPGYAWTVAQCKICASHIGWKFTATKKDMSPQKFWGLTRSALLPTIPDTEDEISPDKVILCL

CWR22R [3] = assay: Induction of cell cycle arrest in AR-positive human 22Rv1 cells assessed as downregulation of cyclin D1 expression at 100 to 1000 nM measured after 72 hrs by Western blot analysis; type: functional, cell-based; settings: dose 100-1000 nM
VCaP [4] = assay: Downregulation of PSA gene expression in AR-positive human VCaP cells at 100 nM measured after 24 hrs by RT-qPCR analysis; type: functional, cell-based
CWR22R [5] = assay: Induction of cell cycle arrest in AR-positive human 22Rv1 cells assessed as downregulation of cyclin E expression at 100 to 1000 nM measured after 72 hrs by Western blot analysis; type: functional, cell-based; settings: dose 100-1000 nM
CWR22R [6] = assay: Induction of cell cycle arrest in AR-positive human 22Rv1 cells assessed as downregulation of CDK4 expression at 100 to 1000 nM measured after 72 hrs by Western blot analysis; type: functional, cell-based; settings: dose 100-1000 nM
CWR22R [7] = assay: Induction of apoptosis in AR-positive human 22Rv1 cells assessed as increase in late apoptotic cells measured after 72 hrs by Annexin V-FITC/PI staining based flow cytometry method; type: functional, cell-based; settings: dose 100-1000 nM, DDE = dose-dependent effect
VCaP [8] = assay: Downregulation of c-Myc […] expression level in AR-positive human VCaP cells measured after 24 hrs by Western blot analysis; type: functional, cell-based; settings: dose 1-10000 nM, DDE = dose-dependent effect
[9] = biological target: T1, Protein cereblon/Bromodomain-containing protein 4 (Homo sapiens); assay: Protac activity at BRD4/CRBN in AR-positive harmone sensitive human LNCaP cells assessed as degradation of BRD4 by measuring downregulation of BRD4 expression level at 1 nM by Western blot analysis; type: cell-based; settings: time 2-48 hrs, TDE = time-dependent effect
VCaP [10] = assay: Inhibition of c-Myc expression level in human VCap cells at 10 nM incubated for 24 hrs by immunoblotting analysis; type: functional, cell-based
[11] = biological target: T1, Protein cereblon/Bromodomain-containing protein 4 (Homo sapiens); assay: Protac activity at BRD4/CRBN in AR-positive human 22Rv1 cells assessed as degradation of BRD4 by measuring downregulation of BRD4 expression level measured after 24 hrs by Western blot analysis; type: cell-based; settings: dose 1-10000 nM, DDE = dose-dependent effect
[12] = biological target: T1, Protein cereblon/Bromodomain-containing protein 4 (Homo sapiens); assay: Protac activity at BRD4/CRBN in human VCaP cells assessed as degradation of BRD4 by measuring downregulation of BRD4 expression level at 10 nM incubated for 24 hrs by immunoblotting analysis; type: cell-based
[13] = biological target: T1, Protein cereblon/Bromodomain-containing protein 4 (Homo sapiens); assay: Protac activity at BRD4/CRBN in AR-positive human 22Rv1 cells assessed as degradation of BRD4 at 100 nM measured after 3 hrs in presence of cycloheximide by Western blot analysis; type: cell-based
VCaP [14] = assay: Downregulation of ERG gene expression in AR-positive human VCaP cells at 100 nM measured after 24 hrs by RT-qPCR analysis; type: functional, cell-based
LNCaP [15] = assay: Antiproliferative activity against AR-positive harmone sensitive human LNCaP cells assessed as reduction in cell viability at 100 to 300 nM incubated for 3 days followed by compound washout and measured after 8 days; type: functional; settings: dose 100-300 nM, time 3 day
[16] = biological target: Bromodomain-containing protein 4 (Homo sapiens, UniProt O60885); assay: Inhibition of BRD4 (unknown origin) by alpha-screen assay
[17] = biological target: Serine/threonine-protein kinase PLK1 (Homo sapiens, UniProt P53350); assay: Inhibition of PLK1 in AR-positive human 22Rv1 cells at 100 nM measured after 3 hrs in presence of cycloheximide by Western blot analysis; type: cell-based
Chain of Serine/threonine-protein kinase PLK1 (P53350 whole entry): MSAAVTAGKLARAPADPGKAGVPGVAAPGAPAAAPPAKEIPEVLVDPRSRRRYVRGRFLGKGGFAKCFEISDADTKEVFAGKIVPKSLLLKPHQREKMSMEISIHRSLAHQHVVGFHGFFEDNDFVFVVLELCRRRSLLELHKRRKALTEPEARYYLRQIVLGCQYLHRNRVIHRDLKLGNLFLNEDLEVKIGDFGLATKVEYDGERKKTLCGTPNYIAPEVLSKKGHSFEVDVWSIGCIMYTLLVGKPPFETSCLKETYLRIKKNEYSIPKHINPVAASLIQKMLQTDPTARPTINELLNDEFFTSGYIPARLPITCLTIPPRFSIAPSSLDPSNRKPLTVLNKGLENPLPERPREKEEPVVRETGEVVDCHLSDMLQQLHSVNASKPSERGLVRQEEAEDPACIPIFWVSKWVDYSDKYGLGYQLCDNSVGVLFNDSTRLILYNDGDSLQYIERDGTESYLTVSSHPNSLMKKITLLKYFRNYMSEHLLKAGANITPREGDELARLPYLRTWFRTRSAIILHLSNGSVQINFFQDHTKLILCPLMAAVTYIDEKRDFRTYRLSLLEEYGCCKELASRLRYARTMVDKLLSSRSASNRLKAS

VCaP [18] = assay: Downregulation of c-Myc […] expression level in AR-positive human VCaP cells at 1 nM by Western blot analysis; type: functional, cell-based; settings: time 2-48 hrs, TDE = time-dependent effect
CWR22R [19] = assay: Induction of apoptosis in AR-positive human 22Rv1 cells assessed as upregulation of cleaved PARP level measured after 72 hrs by Annexin V-FITC/PI staining based flow cytometry method; type: functional, cell-based; settings: dose 100-1000 nM, DDE = dose-dependent effect
VCaP [20] = assay: Downregulation of PSA protein expression in AR-positive human VCaP cells at 100 nM measured after 48 hrs by Western blot analysis; type: functional, cell-based
CWR22R [21] = assay: Antiproliferative activity against AR-positive human 22Rv1 cells assessed as reduction in cell viability at 100 to 300 nM incubated for 3 days followed by compound washout and measured after 8 days; type: functional; settings: dose 100-300 nM, time 3 day
[22] = biological target: T1, Protein cereblon/Bromodomain-containing protein 4 (Homo sapiens); assay: Protac activity at BRD4/CRBN in AR-positive human VCaP cells assessed as degradation of BRD4 by measuring downregulation of BRD4 expression level at 1 nM by Western blot analysis; type: cell-based; settings: time 2-48 hrs, TDE = time-dependent effect
CWR22R [23] = assay: Downregulation of c-Myc […] expression level in AR-positive human 22Rv1 cells measured after 24 hrs by Western blot analysis; type: functional, cell-based; settings: dose 1-10000 nM, DDE = dose-dependent effect
PC-3 = assay: Antiproliferative activity against AR-negative human castration resistant PC-3 cells assessed as reduction in cell viability measured after 4 days by MTT assay; type: functional, cell-based; settings: PC-3, 96 h
CWR22R [24] = assay: Induction of cell cycle arrest in AR-positive human 22Rv1 cells assessed as accumulation of cells at G0/G1 phase at 100 to 1000 nM measured after 72 hrs by flow cytometry analysis; type: functional, cell-based; settings: dose 100-1000 nM
VCaP [25] = assay: Downregulation of c-Myc mRNA expression level in AR-positive human VCaP cells at 100 nM measured after 24 hrs by RT-qPCR analysis; type: functional, cell-based
CWR22R [26] = assay: Induction of cell cycle arrest in AR-positive human 22Rv1 cells assessed as downregulation of cyclin B1 expression at 100 to 1000 nM measured after 72 hrs by Western blot analysis; type: functional, cell-based; settings: dose 100-1000 nM
VCaP [27] = assay: Downregulation of BMPR1B gene expression in AR-positive human VCaP cells at 100 nM measured after 24 hrs by RT-qPCR analysis; type: functional, cell-based
[28] = biological target: T1, Protein cereblon/Bromodomain-containing protein 4 (Homo sapiens); assay: Protac activity at BRD4/CRBN in AR-positive human 22Rv1 cells assessed as degradation of BRD4 by measuring downregulation of BRD4 expression level at 1 nM by Western blot analysis; type: cell-based; settings: time 2-48 hrs, TDE = time-dependent effect
[29] = biological target: T1, Protein cereblon/Bromodomain-containing protein 4 (Homo sapiens); assay: Protac activity at BRD4/CRBN in AR-positive human VCaP cells assessed as degradation of BRD4 at 1 uM measured after 24 hrs in presence of MLN4924 by Western blot analysis; type: cell-based
CWR22R [30] = assay: Induction of apoptosis in AR-positive human 22Rv1 cells assessed as increase in early apoptotic cells measured after 72 hrs by Annexin V-FITC/PI staining based flow cytometry method; type: functional, cell-based; settings: dose 100-1000 nM, DDE = dose-dependent effect
MV4-11 = assay: Antiproliferative activity against human MV4-11 cells assessed as reduction in cell viability measured after 4 days by MTT assay; type: functional, cell-based; settings: MV4-11, 96 h
VCaP [31] = assay: Downregulation of FKBP5 gene expression in AR-positive human VCaP cells at 100 nM measured after 24 hrs by RT-qPCR analysis; type: functional, cell-based
LNCaP [32] = assay: Antiproliferative activity against AR-positive harmone sensitive human LNCaP cells assessed as reduction in cell viability measured after 4 days by MTT assay; type: functional, cell-based; settings: 96 h
VCaP [33] = assay: Antiproliferative activity against AR-positive human VCaP cells assessed as reduction in cell viability measured after 4 days by MTT assay; type: functional, cell-based; settings: 96 h

SMILES: CC[C@@H]1c2nnc(C)n2-c2cnc(Nc3ccc(C(=O)NC4CCN(C(=O)COc5cccc6c5C(=O)N(C5CCC(=O)NC5=O)C6=O)CC4)cc3OC)nc2N1CC1CCCCC1 (stereo not given in full)
- Activity (CWR22R [1]): Active
- Activity [2]: Active
- Activity (CWR22R [3]): Active
- Activity (VCaP [4]): Active
- Activity (CWR22R [5]): Active
- Activity (CWR22R [6]): Active
- Activity (CWR22R [7]): Dde
- Activity (VCaP [8]): Dde
- Activity [9]: Tde
- inhibition (VCaP [10]): Active
- Activity [11]: Dde
- Activity [12]: Active
- Activity [13]: Active
- Activity (VCaP [14]): Active
- inhibition (INH) (LNCaP [15]): 100%
- IC50 [16]: 254 nM
- inhibition [17]: Active
- Activity (VCaP [18]): Tde
- Activity (CWR22R [19]): Dde
- Activity (VCaP [20]): Active
- inhibition (INH) (CWR22R [21]): 100%
- Activity [22]: Tde
- Activity (CWR22R [23]): Dde
- IC50 (PC-3): 2440 nM
- Activity (CWR22R [24]): Active
- Activity (VCaP [25]): Active
- Activity (CWR22R [26]): Active
- Activity (VCaP [27]): Active
- Activity [28]: Tde
- Activity [29]: Active
- Activity (CWR22R [30]): Dde
- IC50 (MV4-11): 3 nM
- Activity (VCaP [31]): Active
- IC50 (LNCaP [32]): 21 nM
- IC50 (VCaP [33]): 16 nM
